These results are taken from BindingDB's records for doi:10.1016/j.ejmech.2019.02.016 (National Health Research Institutes, 2019).

The test can be described thus: Inhibition of NS5A in HCV genotype 1b infected in human HuH7 replicon cells assessed as reduction in subgenomic viral RNA replication treated for 2 days followed by compound washout and subsequent compound dosing measured after 1 day by SEAP reporter gene assay. A general note: Replicon systems follow genome replication, usually without infectious particles.

For orientation: EC50 means the concentration at which the effect is half-maximal. `O=C(N[C@@H](C(=O)N1CCC[C@H]1c1ncc(-c2ccc(-c3ccc(-c4cnc([C@@H]5CCCN5C(=O)[C@H](NC(=O)N5CCCCC5)c5ccccc5)s4)cc3)cc2)s1)c1ccccc1)N1CCCCC1`: the EC50 is 0.016 nM.
Regarding `CC(=O)N[C@@H](C(=O)N1CCC[C@H]1c1ncc(-c2ccc(-c3ccc(-c4cnc([C@@H]5CCCN5C(=O)[C@H](NC(C)=O)c5ccccc5)s4)cc3)cc2)s1)c1ccccc1`, the EC50 amounted to 0.02 nM.
For `O=C(N[C@@H](C(=O)N1CCC[C@H]1c1ncc(-c2ccc(-c3ccc(-c4cnc([C@@H]5CCCN5C(=O)[C@H](NC(=O)c5ccccc5)c5ccccc5)s4)cc3)cc2)s1)c1ccccc1)c1ccccc1`, the EC50 was determined as 21 nM.
For `CC(C)C[C@@H](NC(=O)C1CC1)C(=O)N1CCC[C@H]1c1ncc(-c2ccc(-c3ccc(-c4cnc([C@@H]5CCCN5C(=O)[C@@H](CC(C)C)NC(=O)C5CC5)s4)cc3)cc2)s1`, the EC50 was 27 nM.
In the case of `CC(C)C(=O)N[C@H](C(=O)N1CCC[C@H]1c1ncc(-c2ccc(-c3ccc(-c4cnc([C@@H]5CCCN5C(=O)[C@H](NC(=O)C(C)C)c5ccccc5)s4)cc3)cc2)s1)c1ccccc1` it was 0.31 nM.
Turning to `CC[C@H](NC(=O)OC)C(=O)N1CCC[C@H]1c1ncc(-c2ccc(-c3ccc(-c4cnc([C@@H]5CCCN5C(=O)[C@H](CC)NC(=O)OC)s4)cc3)cc2)s1`, the EC50 was 57 nM.
With `O=C(N[C@H](C(=O)N1CCC[C@H]1c1ncc(-c2ccc(-c3ccc(-c4cnc([C@@H]5CCCN5C(=O)[C@H](NC(=O)C5CC5)c5ccccc5)s4)cc3)cc2)s1)c1ccccc1)C1CC1`, the EC50 is 1.5 nM.
Regarding `O=C(N[C@@H](C(=O)N1CCC[C@H]1c1ncc(-c2ccc(-c3ccc(-c4cnc([C@@H]5CCCN5C(=O)[C@H](NC(=O)c5ccoc5)c5ccccc5)s4)cc3)cc2)s1)c1ccccc1)c1ccoc1`, the EC50 stood at 0.08 nM.
Regarding `CS(=O)(=O)N[C@H](C(=O)N1CCC[C@H]1c1ncc(-c2ccc(-c3ccc(-c4cnc([C@@H]5CCCN5C(=O)[C@H](NS(C)(=O)=O)c5ccccc5)s4)cc3)cc2)s1)c1ccccc1`, the EC50 was determined as 149 nM.
In the case of `CCN(CC)CCC(=O)N[C@H](C(=O)N1CCC[C@H]1c1ncc(-c2ccc(-c3ccc(-c4cnc([C@@H]5CCCN5C(=O)[C@H](NC(=O)CCN(CC)CC)c5ccccc5)s4)cc3)cc2)s1)c1ccccc1` it was 22 nM.
Regarding `O=C(N[C@@H](C(=O)N1CCC[C@H]1c1ncc(-c2ccc(-c3ccc(-c4cnc([C@@H]5CCCN5C(=O)[C@H](NC(=O)N5CCOCC5)c5ccccc5)s4)cc3)cc2)s1)c1ccccc1)N1CCOCC1`, the EC50 was 0.02 nM.
For `O=C(N[C@@H](C(=O)N1CCC[C@H]1c1ncc(-c2ccc(-c3ccc(-c4cnc([C@@H]5CCCN5C(=O)[C@H](NC(=O)c5ccccn5)c5ccccc5)s4)cc3)cc2)s1)c1ccccc1)c1ccccn1`, the EC50 was 46 nM.
For `CC(C)(C)C(=O)N[C@@H](C(=O)N1CCC[C@H]1c1ncc(-c2ccc(-c3ccc(-c4cnc([C@@H]5CCCN5C(=O)[C@H](NC(=O)C(C)(C)C)c5ccccc5)s4)cc3)cc2)s1)c1ccccc1`, the EC50 is 1.4 nM.
For the molecule `CCCCCC(=O)N[C@@H](C(=O)N1CCC[C@H]1c1ncc(-c2ccc(-c3ccc(-c4cnc([C@@H]5CCCN5C(=O)[C@H](NC(=O)CCCCC)c5ccccc5)s4)cc3)cc2)s1)c1ccccc1`, the EC50 was 0.063 nM.
With `CN1CCN(CCC(=O)N[C@H](C(=O)N2CCC[C@H]2c2ncc(-c3ccc(-c4ccc(-c5cnc([C@@H]6CCCN6C(=O)[C@H](NC(=O)CCN6CCN(C)CC6)c6ccccc6)s5)cc4)cc3)s2)c2ccccc2)CC1`, the EC50 worked out at 102 nM.
Turning to `CC(C)[C@@H](NC(=O)C1CC1)C(=O)N1CCC[C@H]1c1ncc(-c2ccc(-c3ccc(-c4cnc([C@@H]5CCCN5C(=O)[C@H](NC(=O)C5CC5)C(C)C)s4)cc3)cc2)s1`, the EC50 came out at 732 nM.
In the case of `O=C(N[C@H](C(=O)N1CCC[C@H]1c1ncc(-c2ccc(-c3ccc(-c4cnc([C@@H]5CCCN5C(=O)[C@H](NC(=O)c5ccsc5)c5ccccc5)s4)cc3)cc2)s1)c1ccccc1)c1ccsc1`, the EC50 came to 122 nM.
With `O=C(CCN1CCCCC1)N[C@@H](C(=O)N1CCC[C@H]1c1ncc(-c2ccc(-c3ccc(-c4cnc([C@@H]5CCCN5C(=O)[C@H](NC(=O)CCN5CCCCC5)c5ccccc5)s4)cc3)cc2)s1)c1ccccc1`, the EC50 came to 0.89 nM.
On to `CCCCCC(=O)N[C@H](C(=O)N1CCC[C@H]1c1ncc(-c2ccc(-c3ccc(-c4cnc([C@@H]5CCCN5C(=O)[C@H](NC(=O)CCCCC)c5ccccc5)s4)cc3)cc2)s1)c1ccccc1`, for which the EC50 came to 2.4 nM.
`CCCC[C@@H](NC(=O)C1CC1)C(=O)N1CCC[C@H]1c1ncc(-c2ccc(-c3ccc(-c4cnc([C@@H]5CCCN5C(=O)[C@@H](CCCC)NC(=O)C5CC5)s4)cc3)cc2)s1`: the concentration for a half-maximal effect (EC50) amounted to 358 nM.
